Results reported in PubChem BioAssay AID248 (DTP/NCI, 2004).
“And” between values parts separate entries of the source, which are not always exact repeats. Equal entries are not always repeated. Toxic doses and inconclusive results are not listed.

Tested on: L1210 leukemia ip in BDF1 mice, survival T/C
Test: NCI In Vivo Anticancer Drug Screen. Data for tumor model L1210 Leukemia (intraperitoneal) in B6D2F1 (BDF1) mice
Conditions: endpoint: mean survival time, higher = longer survival
How it was run: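 Tumor was transplanted into mice, which were then dosed with test compound or vehicle alone. Survival was recorded for each group, and the treated figure was expressed relative to the control figure.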

[1] = dose: 100.0 mg/kg/injection, schedule: Q01DX001 (ip), vehicle: saline with Tween-80
[2] = dose: 200.0 mg/kg/injection, schedule: Q01DX001 (ip), vehicle: saline with Tween-80
[3] = dose: 400.0 mg/kg/injection, schedule: Q01DX001 (ip), vehicle: saline with Tween-80

CN=C(NC)N/N=C(C)\C=N\NC(=NC)NC
T/C (dose: 1.0 mg/kg/injection, schedule: Q01DX Z (ip), vehicle: methylcellulose (MC)): 103 % of control
T/C (dose: 2.0 mg/kg/injection, schedule: Q01DX Z (ip), vehicle: methylcellulose (MC)): 92 % of control
T/C (dose: 4.0 mg/kg/injection, schedule: Q01DX Z (ip), vehicle: methylcellulose (MC)): 101 % of control
T/C (dose: 8.0 mg/kg/injection, schedule: Q01DX Z (ip), vehicle: methylcellulose (MC)): 104 % of control
T/C (dose: 15.0 mg/kg/injection, schedule: Q01DX Z (ip), vehicle: saline): 107 % of control
T/C (dose: 15.0 mg/kg/injection, schedule: Q01DX Z (oral), vehicle: methylcellulose (MC)): 104 % of control
T/C (dose: 30.0 mg/kg/injection, schedule: Q01DX Z (ip), vehicle: methylcellulose (MC)): 160 % of control
T/C (dose: 30.0 mg/kg/injection, schedule: Q01DX Z (ip), vehicle: saline): 97 % of control
T/C (dose: 30.0 mg/kg/injection, schedule: Q01DX Z (oral), vehicle: methylcellulose (MC)): 96 % of control
T/C (dose: 60.0 mg/kg/injection, schedule: Q01DX Z (ip), vehicle: saline): 103 % of control
T/C (dose: 60.0 mg/kg/injection, schedule: Q01DX Z (oral), vehicle: methylcellulose (MC)): 107 % of control
T/C (dose: 120.0 mg/kg/injection, schedule: Q01DX Z (ip), vehicle: saline): 96 % of control
T/C (dose: 120.0 mg/kg/injection, schedule: Q01DX Z (oral), vehicle: methylcellulose (MC)): 104 % of control
T/C (dose: 240.0 mg/kg/injection, schedule: Q01DX Z (ip), vehicle: saline): 100 % of control
T/C (dose: 240.0 mg/kg/injection, schedule: Q01DX Z (oral), vehicle: methylcellulose (MC)): 95 % of control
T/C (dose: 480.0 mg/kg/injection, schedule: Q01DX009 (oral), vehicle: saline): 94 % of control
T/C (dose: 480.0 mg/kg/injection, schedule: Q01DX Z (oral), vehicle: methylcellulose (MC)): 96 % of control
T/C (dose: 960.0 mg/kg/injection, schedule: Q01DX009 (oral), vehicle: saline): 94 % of control

O=C(NCCc1ccccc1)c1ccc(Cl)cc1
T/C (dose: 100.0 mg/kg/injection, schedule: Q04DX002 (ip), vehicle: Klucel (hydroxypropylcellulose) (HPC)): 115 % of control
T/C (dose: 200.0 mg/kg/injection, schedule: Q04DX002 (ip), vehicle: Klucel (hydroxypropylcellulose) (HPC)): 92 % of control
T/C (dose: 400.0 mg/kg/injection, schedule: Q04DX002 (ip), vehicle: Klucel (hydroxypropylcellulose) (HPC)): 89 % of control

O=c1[nH]c(=O)c(C2OC(CO)C(O)C2O)co1 (configuration not stated)
T/C (dose: 6.25 mg/kg/injection, schedule: Q04DX003 (ip), vehicle: saline with Tween-80): 123 % of control
T/C (dose: 12.5 mg/kg/injection, schedule: Q04DX003 (ip), vehicle: saline with Tween-80): 106 % of control

CC(=O)OC(OC(C)=O)c1ccc([N+](=O)[O-])c([N+](=O)[O-])c1
T/C (dose: 12.5 mg/kg/injection, schedule: Q01DX001 (ip), vehicle: carboxymethylcellulose (CMC)): 97 % of control
T/C (dose: 25.0 mg/kg/injection, schedule: Q01DX001 (ip), vehicle: carboxymethylcellulose (CMC)): 97 % of control
T/C (dose: 50.0 mg/kg/injection, schedule: Q01DX001 (ip), vehicle: carboxymethylcellulose (CMC)): 94 % of control

O=c1oc(-c2ccccc2)c(-c2ccccc2)c(-c2ccccc2)c1-c1ccccc1
T/C [1]: 103 % of control
T/C [2]: 91 % of control
T/C [3]: 91 % of control

Nc1ncnc2c1nc(N)n2C1OC(CO)C(O)C1O (configuration not stated)
T/C (dose: 100.0 mg/kg/injection, schedule: Q01DX001 (ip), vehicle: saline): 115 % of control and 104 % of control
T/C (dose: 200.0 mg/kg/injection, schedule: Q01DX001 (ip), vehicle: saline): 123 % of control and 104 % of control
T/C (dose: 400.0 mg/kg/injection, schedule: Q01DX001 (ip), vehicle: saline): 98 % of control

CCCCCCC(C)CCCC (configuration not stated)
T/C [1]: 94 % of control
T/C [2]: 91 % of control
T/C [3]: 86 % of control

Cc1ccc(NNS(=O)(=O)c2cccc([N+](=O)[O-])c2)c(Br)c1
T/C (dose: 100.0 mg/kg/injection, schedule: Q01DX001 (ip), vehicle: Klucel (hydroxypropylcellulose) (HPC)): 96 % of control
T/C (dose: 100.0 mg/kg/injection, schedule: Q04DX003 (ip), vehicle: Klucel (hydroxypropylcellulose) (HPC)): 102 % of control
T/C (dose: 200.0 mg/kg/injection, schedule: Q01DX001 (ip), vehicle: Klucel (hydroxypropylcellulose) (HPC)): 94 % of control
T/C (dose: 200.0 mg/kg/injection, schedule: Q04DX003 (ip), vehicle: Klucel (hydroxypropylcellulose) (HPC)): 96 % of control
T/C (dose: 400.0 mg/kg/injection, schedule: Q01DX001 (ip), vehicle: Klucel (hydroxypropylcellulose) (HPC)): 100 % of control
T/C (dose: 400.0 mg/kg/injection, schedule: Q04DX003 (ip), vehicle: Klucel (hydroxypropylcellulose) (HPC)): 96 % of control

FC1(F)SC2c3ccccc3CC2C1(F)F (configuration not stated)
T/C (dose: 100.0 mg/kg/injection, schedule: Q01DX009 (ip), vehicle: Klucel (hydroxypropylcellulose) (HPC)): 97 % of control
T/C (dose: 200.0 mg/kg/injection, schedule: Q01DX009 (ip), vehicle: Klucel (hydroxypropylcellulose) (HPC)): 101 % of control
T/C (dose: 400.0 mg/kg/injection, schedule: Q01DX009 (ip), vehicle: Klucel (hydroxypropylcellulose) (HPC)): 95 % of control

Cc1nccc2c(C)c3c(cc12)c1ccccc1n3CCC1CO1 (configuration not stated)
T/C (dose: 37.5 mg/kg/injection, schedule: Q04DX003 (ip), vehicle: water): 118 % of control
T/C (dose: 75.0 mg/kg/injection, schedule: Q04DX003 (ip), vehicle: water): 122 % of control
T/C (dose: 150.0 mg/kg/injection, schedule: Q04DX003 (ip), vehicle: water): 118 % of control
